Laboratory results published in the supplement of paper PMC10011410.
± gives the standard deviation of the averaged measurements.

Columns and labels:
[1] = system: U-2 OS; assay: intracellular GSH:GSSG ratio (calculated); higher = more reduced glutathione pool; conditions: 24 h
Protocol: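 Intracellular glutathione in U-2 OS cells after 24 h compound treatment at 5, 10 and 20 uM (some at 40 and 80 uM). Total glutathione and GSSG were measured with the GSH/GSSG-Glo kit, and the GSH:GSSG ratio was calculated. Mean of five technical replicate plates.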

[2] = system: U-2 OS; assay: total intracellular glutathione (GSH + GSSG) relative to DMSO (% of control); higher = more glutathione; conditions: 24 h
Protocol: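 Total intracellular glutathione (GSH + GSSG) in U-2 OS cells by GSH/GSSG-Glo after 24 h compound treatment at 5, 10 and 20 uM (some at 40 and 80 uM), as percent of DMSO control. Five technical replicate plates, averaged.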

[3] = system: U-2 OS; assay: cell viability (CellTiter-Glo) relative to DMSO (% of control); higher = more viable; conditions: 24 h
Protocol: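 Cell viability of U-2 OS cells by CellTiter-Glo after 24 h compound treatment at 5, 10 and 20 uM (some at 40 and 80 uM), measured in parallel with the glutathione assay, as percent of DMSO control. Five technical replicate plates, averaged.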

[4] = system: U-2 OS; assay: AUC of culture confluence over time (live-cell imaging) (AUC (confluence % x time)); higher = more confluent culture (less growth inhibition)
Method in brief: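 Using an Incucyte S3 with a 10x objective, confluence of U-2 OS cells was imaged every 4 h for up to 60 h at 37 °C. The cells had been seeded at 750 per well in 384-well plates in F-12K medium with 10% FBS and treated by pin tool 24 h later, most compounds at 20, 10 and 5 μM with 0.2% DMSO. The value given is the area under the confluence-versus-time curve.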

[5] = system: U-2 OS; assay: relative cell count vs DMSO (cell painting) (fraction of DMSO control); higher = more cells remaining (less cytotoxic); conditions: 24 h
Method in brief: (§1)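 In this cell painting assay, roughly 1,500 U-2 OS cells per well in 384-well plates were pin-tool treated at 37 °C for 24 h, typically at six 2-fold steps from 20 μM down to 625 nM. Cells were stained with MitoTracker, concanavalin A, phalloidin, wheat germ agglutinin, Hoechst and SYTO 14, imaged on an Opera Phenix, and analysed in CellProfiler with normalization to same-plate DMSO cells. Reported values are means of four replicate plates, with the activity score defined as the Mahalanobis distance from DMSO wells and cell count defined relative to DMSO wells.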

[6] = system: U-2 OS; assay: cell painting activity score (Mahalanobis distance from DMSO wells); higher = stronger morphological phenotype; conditions: 24 h
Method in brief: as §1

SMILES	intracellular GSH:GSSG ratio ([1]; 5 µM)	intracellular GSH:GSSG ratio ([1]; 10 µM)	intracellular GSH:GSSG ratio ([1]; 20 µM)	total intracellular glutathione ([2]; 5 µM)	total intracellular glutathione ([2]; 10 µM)	total intracellular glutathione ([2]; 20 µM)	cell viability ([3]; 5 µM)	cell viability ([3]; 10 µM)	cell viability ([3]; 20 µM)	AUC of culture confluence over time ([4]; 5 µM)	AUC of culture confluence over time ([4]; 10 µM)	AUC of culture confluence over time ([4]; 20 µM)	relative cell count ([5]; 0.625 µM)	relative cell count ([5]; 1.25 µM)	relative cell count ([5]; 2.5 µM)	relative cell count ([5]; 5 µM)	relative cell count ([5]; 10 µM)	relative cell count ([5]; 20 µM)	cell painting activity score ([6]; 0.625 µM)	cell painting activity score ([6]; 1.25 µM)	cell painting activity score ([6]; 2.5 µM)	cell painting activity score ([6]; 5 µM)	cell painting activity score ([6]; 10 µM)	cell painting activity score ([6]; 20 µM)	intracellular GSH:GSSG ratio ([1]; 40 µM)	intracellular GSH:GSSG ratio ([1]; 80 µM)	total intracellular glutathione ([2]; 40 µM)	total intracellular glutathione ([2]; 80 µM)	cell viability ([3]; 40 µM)	cell viability ([3]; 80 µM)	AUC of culture confluence over time ([4]; 40 µM)	AUC of culture confluence over time ([4]; 80 µM)	relative cell count ([5]; 40 µM)	relative cell count ([5]; 80 µM)	cell painting activity score ([6]; 40 µM)	cell painting activity score ([6]; 80 µM)	AUC of culture confluence over time ([4]; 0.625 µM)	AUC of culture confluence over time ([4]; 1.25 µM)	AUC of culture confluence over time ([4]; 2.5 µM)
C=CC(=O)Nc1cc2c(Nc3ccc(F)c(Cl)c3)ncnc2cc1OCCCN1CCOCC1	7.51	1.96	0.352	69.5 ± 4.6	11.2 ± 1.2	4.36 ± 0.66	57.1 ± 4.1	6.54 ± 1.9	4.85 ± 1.7	19.1	13.7	9.96	0.407	0.133	0.0844	0.0662	0.0483	0.019	15.6	19.4	27.2	25.4	25.3	26.9	–	–	–	–	–	–	–	–	–	–	–	–	–	–	–
C=CC(=O)Nc1cc(Nc2nccc(-c3cn(C)c4ccccc34)n2)c(OC)cc1N(C)CCN(C)C	22.9	12.3	7.29	86.9 ± 3.4	77.4 ± 3.5	50.4 ± 3.9	75.6 ± 3.2	55 ± 4	35 ± 2.5	39	28.4	7	0.982	0.951	0.964	0.897	0.773	0.363	10.5	8.95	9.22	9.78	13.8	17.8	–	–	–	–	–	–	–	–	–	–	–	–	–	–	–
CC(=O)c1c(O)c(C)c(O)c(Cc2c(O)c3c(c(C(=O)C=Cc4ccccc4)c2O)OC(C)(C)C=C3)c1O	25.1	24.3	26.6	95.7 ± 2.9	91.7 ± 4.9	89.9 ± 4.4	98.4 ± 1.9	93.9 ± 3.6	91.9 ± 4.7	39.9	35.4	29	1.07	1.12	1.14	1.14	1.11	1.07	4.78	3.41	4.37	3.79	6.83	11.2	26.7	15	83.2 ± 1.9	84.2 ± 4.5	89 ± 4.1	78.4 ± 1.5	22.2	18.2	0.889	0.727	13.1	12.8	–	–	–
CCCC1(c2ccccc2)NC(=O)N(CC(=O)N(C)Cc2c(F)cccc2Cl)C1=O (centres undefined)	20.7	26.8	22.5	102 ± 4.9	104 ± 2.5	101 ± 3.9	101 ± 3.2	102 ± 2.8	100 ± 2.9	53.9	48.4	48.7	1.02	0.978	1.04	1.03	0.991	1.04	4.41	4.87	5.72	6.63	7.72	8.18	–	–	–	–	–	–	–	–	–	–	–	–	–	–	–
Cc1cc(NC(=O)c2cccc(NC(=O)/C=C/CN(C)C)c2)ccc1Nc1nccc(-c2cccnc2)n1	23.3	21	8.13	93.9 ± 3.6	94.7 ± 6.5	72.6 ± 3.4	102 ± 7.2	98.9 ± 2.7	78.6 ± 5.4	45.6	31.1	15.2	0.888	0.863	0.841	0.839	0.742	0.425	10.3	11.4	11	10.8	11.1	13	–	–	–	–	–	–	–	–	–	–	–	–	–	–	–
O=S1(=O)CCc2ccccc21	26	25.7	22.4	104 ± 1.9	109 ± 7.8	106 ± 7.5	101 ± 3.4	101 ± 5.8	102 ± 2.9	51	51.8	54.2	1.03	0.988	1.02	1.05	1.02	1.02	4.91	3.74	4.94	4.01	4.61	6.81	–	–	–	–	–	–	–	–	–	–	–	–	–	–	–
O=C(O[C@@H]1Cc2c(O)cc(O)cc2O[C@@H]1c1cc(O)c(O)c(O)c1)c1cc(O)c(O)c(O)c1	24.8	18.8	11.4	96 ± 2.7	102 ± 5.6	63.7 ± 3.8	98.8 ± 3.2	97.6 ± 4.7	69.1 ± 19	48.7	49.6	48.6	0.966	1	0.981	0.96	0.989	0.897	3.76	4.88	4.25	4.82	5.68	10.4	14	12	77.8 ± 5.7	53.9 ± 4.4	83 ± 14	43.2 ± 2.7	41.4	28.3	0.843	0.466	4.51	14.8	–	–	–
O=S1(=O)C=C(Sc2nn(-c3ccccc3)c(=S)s2)c2ccccc21	11.7	7.07	2.96	65 ± 9.1	43.8 ± 9	29.2 ± 4.9	38.8 ± 8.9	30.5 ± 2.7	36.6 ± 8.1	17.7	15.9	16.3	0.875	0.647	0.35	0.223	0.247	0.259	11.4	11.7	19.6	17.8	20.4	18.2	–	–	–	–	–	–	–	–	–	–	–	–	–	–	–
O=C(OCC)/C(C(OCC)=O)=C\CCCCCCCCCCCCCC	18.9	17.6	21.8	100 ± 4.9	95.7 ± 3.5	93.1 ± 2	94.3 ± 6.5	96.7 ± 6.4	100 ± 8	53.1	50.2	48.9	0.991	0.978	0.959	1.02	0.99	0.967	5.04	5.19	5.29	5.06	5.95	10.9	22	20.9	105 ± 4.8	98.9 ± 3	98 ± 6.9	99.2 ± 6.2	50.4	50.3	0.841	0.829	7.78	10.2	–	–	–
O=C(NNS(=O)(=O)c1ccccc1F)c1cc(F)cc(-c2ccccn2)c1	21.6	19.3	22.2	101 ± 5.7	103 ± 5.3	104 ± 5.1	97.4 ± 5.8	97.1 ± 5.3	97.2 ± 4.7	47.7	48.6	51.9	1	0.967	0.966	0.955	0.925	0.939	4.25	5.31	5.99	9.11	10.5	9.4	–	–	–	–	–	–	–	–	–	–	–	–	–	–	–
O=C1/C(=C/c2ccc(O)c(Br)c2)CCC/C1=C\c1ccc(O)c(Br)c1	15.5	14	11.9	113 ± 2.6	126 ± 4.8	120 ± 2.2	100 ± 4.4	95.1 ± 4.6	94.1 ± 5.6	49.5	–	–	1.01	1.02	0.982	0.904	0.96	0.55	4.8	5.76	5.97	8.32	9.31	12.2	9.48	3.73	119 ± 3.6	13.4 ± 2.5	88.5 ± 5.9	11.9 ± 2.3	–	–	–	–	–	–	–	–	–
C=CC(=O)Nc1cccc(Oc2nc(Nc3ccc(N4CCN(C)CC4)cc3OC)ncc2Cl)c1	24.9	–	–	110 ± 7.6	102 ± 5.2	108 ± 2	87.2 ± 3.6	76 ± 1.4	39.8 ± 1.5	42.4	21.9	5.33	1.09	1	0.976	0.957	0.914	0.342	5.47	8.25	10.7	9.73	12.1	14.9	–	–	–	–	–	–	–	–	–	–	–	–	–	–	–
O=C(/C(C(N1CC2=CC=CC=C2)=O)=C/C3=C(C)C=C(O)C=C3C)N(CC4=CC=CC=C4)C1=O	21.3	22.8	29.1	99.8 ± 4.9	98.5 ± 2.1	104 ± 5.8	97 ± 6.9	98.1 ± 2.9	102 ± 6.1	50.9	49.8	46.2	0.901	0.839	0.861	0.841	0.776	0.292	3.82	5.14	5.14	4.49	9.6	10.8	19.1	12.4	77.3 ± 11	27.7 ± 8	70 ± 23	14.7 ± 7.9	34.6	12.1	0.419	0.0657	8.64	16.5	–	–	–
COC(=O)Nc1nc2ccc(C(=O)c3cccs3)cc2[nH]1	3.33	2.36	2.95	53.1 ± 6.4	50.2 ± 4.2	51.4 ± 6	54.8 ± 7	47.5 ± 5.7	52.3 ± 9.2	20.2	18.8	24.1	0.272 ± 0.056	0.265 ± 0.032	0.243 ± 0.033	0.232 ± 0.034	0.222 ± 0.035	0.211 ± 0.036	19.6 ± 2.7	18.4 ± 2.2	21.5 ± 2.2	22.3 ± 1.8	22.7 ± 1.8	23.1 ± 1.4	–	–	–	–	–	–	–	–	–	–	–	–	20.9	19.1	21.5
